Laboratory results published in article PMC7955127, “Preclinical small molecule WEHI-7326 overcomes drug resistance and elicits response in patient-derived xenograft models of human treatment-refractory tumors” (Cell Death & Disease, 2021).

Legend:
[1] = test system: spontaneous neuroblastoma in Th-MYCN transgenic mice; experiment: Th-MYCN transgenic mouse model of neuroblastoma; type: in vivo; conditions: WEHI-7326 20 mg/kg i.v. twice weekly, standard-of-care combinations daily i.p. for 5 days
Procedure: All animal studies were performed in accordance with the guidelines approved by University of New South Wales Animal Care and Ethics Committee (ACEC 17/53B) and in accordance with the requirements of the Australian Code for the Care and Use of Animals for Scientific Purposes. PDX models COG-N-440x and COG-N-496x were obtained from the Childhood Cancer Repository, Texas Tech University Health Sciences Center in Lubbock, TX, USA. 6–8 week old female NSG mice were engrafted by subcutaneous injection with 1 × 10^6 freshly thawed PDX tumor cells into one flank in a mixture of 100 μl RPMI-1640 and 100 μl Matrigel. Mice were monitored for tumor development three times weekly and tumor size measured using digital Vernier calipers. Treatments commenced when tumors reached 50 mm^3, following randomization into treatment arms. […] Mice were treated with either vincristine (0.5 mg/kg, once weekly i.p. in sterile saline for up to 5 weeks), WEHI-7326 (20 mg/kg; twice weekly i.v. in sterile saline for up to 5 weeks) or vehicle (as for WEHI-7326). For the Th-MYCN transgenic mouse model, spontaneous tumor growth in mice homozygous for the MYCN transgene was assessed by abdominal palpation at least twice a week. Treatments commenced once a small palpable tumor (~5 mm) was detected, following randomization to treatment arms. Mice were euthanized upon detection of an abdominal tumor of ~1 cm in diameter. […]

[2] = Fourteen day maximum tolerated dose study, twice weekly i.v. (non-GLP); type: in vivo
Procedure: Fourteen day maximum tolerated dose (MTD) study of WEHI-7326 dihydrochloride following twice weekly intravenous administration in female Sprague-Dawley rats. All treatments were administered i.v. (tail vein) in a dosing volume of 10 mL/kg. Treatment was administered in a staggered manner, beginning with WEHI-7326 at 7.5 mg/kg and then increasing the dose on subsequent days. For all data calculations and presentation, the first day of treatment for each group is designated as Day 1. One animal died immediately following a single dose of WEHI-7326 at 60 mg/kg (Group 2). The remaining scheduled treatments at this dose were cancelled and dosing recommenced at a reduced dose of 10 mg/kg to the remaining 3 animals in this group. Intravenous (tail vein) treatment of female Sprague-Dawley rats with WEHI-7326 was tolerated without serious adverse events or body weight loss exceeding the ethical limit at doses of 7.5 and 10 mg/kg in this study.
Sixteen female Sprague-Dawley rats were microchipped and randomised into four groups of four based on body weight two days prior to the first day’s treatment. The test article was to be tested at four dose concentrations of 7.5 mg/kg, 15 mg/kg, 30 mg/kg and 60 mg/kg, administered i.v. via tail vein injection at a dose rate of 10 mL/kg. […] Animals were to be dosed on their respective Study Day 1, then twice weekly over two weeks. Body weights were measured once prior to dose administration, then daily for the duration of the study and at termination. Clinical observations were performed on a daily basis. Due to the immediate death of one animal dosed with WEHI-7326 at 60 mg/kg and subsequent development of signs of toxicity in animals that had received three doses at 15 mg/kg and two doses at 30 mg/kg, the dose level for the remaining three animals in Group 4 was reduced to 10 mg/kg (four doses). As treatment with WEHI-7326 was tolerated without serious adverse events or body weight loss exceeding the ethical limit at doses of 7.5 and 10 mg/kg in this study, the maximum tolerated dose was determined to be 10 mg/kg.

[3] = test system: 134056 HGSOC PDX; experiment: HGSOC PDX model 134056; type: in vivo, NSG mice; conditions: 134056 platinum-sensitive PDX; 20 mg/kg i.v. biweekly, 6 weeks
Procedure: Two to three mm ovarian tumor fragments were subcutaneously engrafted in the left flank of NSG mice and monitored by physical palpation for tumor growth and engraftment. Engrafted tumors were measured twice a week using digital Vernier calipers and maximum tumor diameter + perpendicular tumor length were digitally recorded into the Study Director software (v 3.0/4.0 StudyLog). Tumor volume was calculated automatically (tumor volume (mm^3) = 0.5236 x [larger diameter (mm) x smaller diameter (mm)^2]). Mice were randomized to treatment once their tumor volume reach 180–300 mm^3 and tumor measurements were performed twice a week up to 120 days or when the tumor volume reaches 700 mm^3.
Time to progressive disease (PD): Defined as the time (in days) from beginning of treatment to an increase in average tumor volume of >20% from the nadir (taken as the smallest average tumor volume recorded since treatment started or 200 mm^3 if nadir was <200 mm^3 as lesions smaller than this are difficult to measure with accuracy). Median time to harvest (TTH): Defined as the time (in days) from the beginning of treatment to day of harvest at 700 mm^3 and the median TTH was calculated and plotted using Kaplan-Meier curves. Based on ref. [27]. […]

[4] = female rats, 7.5 mg/kg twice weekly i.v.
[5] = female rats, 10 mg/kg twice weekly i.v.
[6] = female rats, 15 mg/kg twice weekly i.v.
[7] = female rats, 30 mg/kg twice weekly i.v.

COc1ccc(CNc2nc(NCc3ccc(CN)cc3)nc(NN3CC(=O)NC3=O)n2)cc1 [WEHI-7326]
Median survival [1]: 44 days
Lethality ([2]; female Sprague-Dawley rats, 60 mg/kg i.v.): acutely lethal
Mild red staining right fore limb (number of animals) [2, 4]: 1/4
No remarkable observation (number of animals) [2, 4]: 3/4
Mild piloerection (number of animals) [2, 5]: 3/3
Mild red staining of snout, fore limbs and/or head (number of animals) [2, 5]: 3/3
Urine-stained fur (number of animals) [2, 5]: 1/3
Discharge both eyes (number of animals) [2, 6]: 1/4
Early termination (StudyDay 9) due to adverse clinical signs and excess body weight loss (number of animals) [2, 6]: 3/4
Mild red staining of eyes and or head (number of animals) [2, 6]: 2/4
Mild squinting both eyes (number of animals) [2, 6]: 1/4
Mild/moderate hunched posture (number of animals) [2, 6]: 4/4
Mild/moderate piloerection (number of animals) [2, 6]: 4/4
Urine-stained fur (number of animals) [2, 6]: 1/4
Early termination (StudyDay 5) due to adverse clinical signs and excess body weight loss (number of animals) [2, 7]: 4/4
Mild excess salivation (number of animals) [2, 7]: 2/4
Mild piloerection (number of animals) [2, 7]: 4/4
Mild red staining of limbs, eyes, snout and or head (number of animals) [2, 7]: 4/4
Mild squinting both eyes (number of animals) [2, 7]: 4/4
Mild/moderate hunched posture (number of animals) [2, 7]: 4/4
Mild/moderate labored breathing (number of animals) [2, 7]: 4/4
Mild/moderate lethargy (number of animals) [2, 7]: 4/4
Urine-stained fur (number of animals) [2, 7]: 4/4
Found dead immediately after administration (number of animals) ([2]; female rats, 60 mg/kg i.v., single dose): 1/1
MTD at 14 days ([2]; rat, in vivo, iv, female Sprague-Dawley rats, twice weekly i.v., 14 day): 10 mg/kg
Median time to harvest (TTH) [3]: 78 days
Time to progressive disease (PD) [3]: 56 days
